Experimental data from patent US8722717B2, “3-triazolylphenyl-substituted sulphide derivatives as acaricides and insecticides” (Bayer CropScience AG, priority 2009, dated 2014).

Key:
[1] = system: greenhouse red spidermite (Tetranychus urticae); assay: Tetranychus test; OP resistant (TETRUR spray treatment), Example 5; type: in vivo; settings: foliar, 144 h, spray on bean leaf discs, after 6 days, read-out: effect (100% means that all of the mites have been killed); for pest or weed control at 500 g/ha: application rate 500 g/ha; for pest or weed control at 100 g/ha: application rate 100 g/ha
Description: (§1) Solvents: 78.0 parts by weight of acetone • • 1.5 parts by weight of dimethylformamide Emulsifier: 0.5 part by weight of alkylaryl polyglycol ether An appropriate preparation of active compound is prepared by mixing 1 part by weight of active compound with the stated amounts of solvent and emulsifier and diluting the concentrate with emulsifier-containing water to the desired concentration. Leaf discs of bean (Phaseolus vulgaris) infested by all stages of the greenhouse red spidermite (Tetranychus urticae) are sprayed with a preparation of active compound at the desired concentration. After 6 days, the effect in % is determined. Here, 100% means that all of the mites have been killed; 0% means that no mites have been killed.

[2] = log P by HPLC/LC-MS on reversed-phase C18, formic acid method [b]; type: physicochemical; settings: reversed-phase C18 HPLC column; pH 2.7, 0.1% aqueous formic acid and acetonitrile; read-out: logP (HCOOH)
Description: (§2) The log P values reported in the table above and in the preparation examples were determined in accordance with EEC Directive 79/831 Annex V.A8 by HPLC (High Performance Liquid Chromatography) on reversed-phase columns (C 18), with the following methods: ^[b] The determination is made by LC-MS in the acid range at pH 2.7 with 0.1% aqueous formic acid and acetonitrile (containing 0.1% formic acid) as eluents; linear gradient from 10% acetonitrile to 95% acetonitrile. Calibration took place with unbranched alkan-2-ones (having 3 to 16 carbon atoms) of known log P values (log P values determined from the retention times by linear interpolation between two successive alkanones).

Boophilus microplus [3] = assay: Boophilus microplus (dip); type: in vivo; settings: application rate 100 ppm, after 7 days
Description: Solvent: Dimethyl Sulphoxide A quantity of 10 mg of active compound is dissolved in 0.5 ml of dimethyl sulphoxide. To prepare a suitable formulation, the active compound solution is diluted with water to the particular desired concentration. This active compound preparation is pipetted into tubes. A quantity of 8-10 ticks is transferred into a further tube with holes. The tube is immersed in the active compound preparation, with all of the ticks being fully wetted. After the liquid has run off, the ticks are transferred to filter discs in plastic dishes and are kept in a conditioned room. The effect is monitored after 7 days on the basis of deposition of fertile eggs. Eggs whose fertility is not externally visible are stored in glass tubes until the larvae hatch, in a controlled-climate box. An activity of 100% means that none of the ticks has laid fertile eggs.

Boophilus microplus [4] = assay: Boophilus microplus test (BOOPMI injection); type: in vivo; settings: injection into the abdomen, 20 μg/animal, after 7 days
Description: Solvent: Dimethyl Sulphoxide An appropriate preparation of active compound is prepared by mixing 10 mg of active compound with 0.5 ml of solvent and diluting the concentrate with solvent to the desired concentration. The solution of active compound is injected into the abdomen (Boophilus microplus) and the animals are transferred into dishes and kept in a controlled atmosphere. The activity is assessed on the basis of deposition of fertile eggs. After 7 days, the effect in % is determined. Here, 100% means that none of the ticks has laid fertile eggs.

[5] = log P by HPLC on reversed-phase C18, phosphoric acid method [a]; type: physicochemical; settings: reversed-phase C18 HPLC column; pH 2.3, 0.1% aqueous phosphoric acid and acetonitrile; read-out: logP (H3PO4)
Description: as §2, with “^[a]” for “^[b]”, “made” for “made by LC-MS”, “2.3” for “2.7”, “phosphoric” for “formic”, “acetonitrile” for “acetonitrile (containing 0.1% formic acid)”

[6] = system: green peach aphid (Myzus persicae); assay: Myzus test (MYZUPE spray treatment); type: in vivo; settings: spray on Chinese cabbage leaf discs, application rate 500 g/ha, after 6 days
Description: as §1, with “Solvent: 78” for “Solvents: 78.0”, “Chinese cabbage (Brassica pekinensis)” for “bean (Phaseolus vulgaris)”, “green peach aphid (Myzus persicae)” for “greenhouse red spidermite (Tetranychus urticae)”, “aphids” for “mites”

[7] = system: larvae of the mustard beetle (Phaedon cochleariae); assay: Phaedon test (PHAECO spray treatment); type: in vivo; settings: foliar, spray on Chinese cabbage leaf discs, application rate 500 g/ha, read-out: effect (100% means that all of the beetle larvae have been killed)
Description: Solvents: 78.0 parts by weight of acetone • • 1.5 parts by weight of dimethylformamide Emulsifier: 0.5 part by weight of alkylaryl polyglycol ether An appropriate preparation of active compound is prepared by mixing 1 part by weight of active compound with the stated amounts of solvent and emulsifier and diluting the concentrate with emulsifier-containing water to the desired concentration. Leaf discs of Chinese cabbage (Brassica pekinensis) are sprayed with a preparation of active compound at the desired concentration and, after they have dried, are populated with larvae of the mustard beetle (Phaedon cochleariae). After the desired time, the effect in % is determined. Here, 100% means that all of the beetle larvae have been killed; 0% means that no beetle larvae have been killed.

[8] = system: greenhouse red spidermite (Tetranychus urticae); assay: Tetranychus test; OP resistant (TETRUR spray treatment), Example 7, comparison with prior art; type: in vivo; settings: 6 d
Description: as §1, with “the desired time,” for “6 days,”

Meloidogyne incognita = Meloidogyne incognita test (MELGIN); type: in vivo; settings: application rate 20 ppm, lettuce in sand, after 14 days
Description: Solvents: 80.0 parts by weight of acetone An appropriate preparation of active compound is prepared by mixing 1 part by weight of active compound with the stated amounts of solvent and emulsifier and diluting the concentrate with water to the desired concentration. Pots are filled with sand, solution of active compound, meloidogyne incognita egg/larvae suspension, and lettuce seeds. The lettuce seeds germinate and the plants develop. On the roots, the galls develop. After 14 days, the nematicidal effect is determined from the gall formation, in %. Here, 100% means that no galls were found; 0% means that the number of galls on the treated plants corresponds to that for the untreated control.

chromatographic logP [2] | Compound | pest or weed control at 500 g/ha [1] | pest or weed control at 100 g/ha [1] | pest or weed control at 500 g/ha [7] | further results
3.12 | Cc1cc(Cl)c(-n2cnc(C(F)(F)F)n2)cc1SCC#N [I-A-12] | 100% |  |  | 
 | Cc1cc(C)c(-n2cnc(C(F)(F)F)n2)cc1SCC(F)(F)C(F)F [I-A-3] | 100% |  |  | activity (100% means that none of the ticks has laid fertile eggs) (Boophilus microplus [3]): 90%; activity (100% means that none of the ticks has laid fertile eggs) (Boophilus microplus [4]): 100%; chromatographic logP [5]: 3.98
3.74 | Cc1cc(C)c(-n2cnc(C(F)(F)F)n2)cc1SCC(F)F [I-A-1, 3-(trifluoromethyl)-1-{2,4-dimethyl-5-[(2,2-difluoroethyl)sulphanyl]phenyl}-1H-1,2,4-triazole] |  | 100% |  | activity (100% means that none of the ticks has laid fertile eggs) (Boophilus microplus [4]): 100%
 | Cc1cc(C)c([S+]([O-])CC(F)(F)C(F)F)cc1-n1cnc(C(F)(F)F)n1 (stereo not drawn) [I-A-5] | 100% |  |  | activity (100% means that all of the aphids have been killed) [6]: 90%; activity (100% means that none of the ticks has laid fertile eggs) (Boophilus microplus [4]): 100%; chromatographic logP [5]: 2.88
2.07 | Cc1cc(C)c([S+]([O-])CC#N)cc1-n1cnc(C(F)(F)F)n1 (stereo not drawn) [I-A-8] | 100% |  |  | 
4.57 | Cc1cc(Cl)c(-n2cnc(C(F)(F)F)n2)cc1SCC(F)(F)C(F)(F)F [I-A-26] |  | 90% |  | 
3.57 | Cc1cc(F)c(-n2cnc(C(F)(F)F)n2)cc1SCC(F)F [I-A-6] |  | 100% | 100% | 
2.33 | Cc1cc(F)c(-n2cnc(C(F)(F)F)n2)cc1[S+]([O-])CC(F)F (stereo not drawn) [I-A-19] |  | 100% | 100% | 
4.06 | Cc1cc(Cl)c(-n2cnc(C(F)(F)F)n2)cc1SCC(F)(F)C(F)F [I-A-17] |  | 100% | 100% | 
1.99 | Cc1cc(F)c(-n2cnc(C(F)(F)F)n2)cc1[S+]([O-])CC#N (stereo not drawn) [I-A-15] | 100% |  |  | 
3.08 | Cc1cc(C)c(-n2cnc(C(F)(F)F)n2)cc1SCC#N [I-A-9] |  | 100% |  | 
4.4 | Cc1cc(F)c(-n2cnc(C(F)(F)F)n2)cc1SCC(F)(F)C(F)(F)F [I-A-22] |  | 100% |  | 
2.54 | Cc1cc(Cl)c(-n2cnc(C(F)(F)F)n2)cc1[S+]([O-])CC(F)F (stereo not drawn) [I-A-21] | 100% |  |  | 
3.87 | Cc1cc(F)c(-n2cnc(C(F)(F)F)n2)cc1SCC(F)(F)C(F)F [I-A-24] |  | 100% | 100% | 
3.4 | Cc1cc(Cl)c(-n2cnc(C(F)(F)F)n2)cc1[S+]([O-])CC(F)(F)C(F)(F)F (stereo not drawn) [I-A-14] | 100% |  | 100% | 
 | Cc1cc(C)c(-n2cnc(C(F)(F)F)n2)cc1SCC(F)(F)C(F)(F)F [I-A-4] | 100% | 100% |  | activity (100% means that none of the ticks has laid fertile eggs) (Boophilus microplus [3]): 90%; activity (100% means that none of the ticks has laid fertile eggs) (Boophilus microplus [4]): 100%; chromatographic logP [5]: 4.49
2.93 | Cc1cc(F)c(-n2cnc(C(F)(F)F)n2)cc1SCC#N [I-A-13] | 100% |  |  | 
2.41 | Cc1cc(C)c([S+]([O-])CC(F)F)cc1-n1cnc(C(F)(F)F)n1 (stereo not drawn) [I-A-2, 3-(trifluoromethyl)-1-{2,4-dimethyl-5-[(2,2-difluoroethyl)sulphinyl]phenyl}-1H-1,2,4-triazole] |  | 100% |  | activity (100% means that none of the ticks has laid fertile eggs) (Boophilus microplus [4]): 100%
 | Cc1cc(C)c(-n2cnc(C(F)(F)F)n2)cc1SCC(F)(F)F [VI -297, reference compound] |  |  |  | % effect after application ([8]; 4 g/ha): 0%; % effect after application ([8]; 20 g/ha): 70%
 | Cc1cc(C)c([S+]([O-])CC(F)(F)C(F)(F)F)cc1-n1cnc(C(F)(F)F)n1 (stereo not drawn) [I-A-10] | 100% |  |  | chromatographic logP [5]: 3.29
2.86 | Cc1cc(C)c([S+]([O-])CCC(F)(F)F)cc1-n1cnc(C(F)(F)F)n1 (stereo not drawn) [I-A-7] |  | 90% |  | 
3.01 | Cc1cc(Cl)c(-n2cnc(C(F)(F)F)n2)cc1[S+]([O-])CC(F)(F)C(F)F (stereo not drawn) [I-A-23] | 100% |  | 100% | 
3.19 | Cc1ccc(-n2cnc(C(F)(F)F)n2)c(C)c1 [IV-A-1, 3-(Trifluoromethyl)-1-(2,4-dimethylphenyl)-1H-1,2,4-triazole] |  |  |  | 
3.22 | Cc1cc(F)c(-n2cnc(C(F)(F)F)n2)cc1[S+]([O-])CC(F)(F)C(F)(F)F (stereo not drawn) [I-A-25] |  | 100% | 100% | 
4.32 | Cc1cc(C)c(-n2cnc(C(F)(F)F)n2)cc1SCCC(F)(F)F [I-A-20] |  | 100% |  | activity (100% means that all of the aphids have been killed) [6]: 100%
2.17 | Cc1cc(Cl)c(-n2cnc(C(F)(F)F)n2)cc1[S+]([O-])CC#N (stereo not drawn) [I-A-11] | 100% |  |  | nematicidal effect from gall formation (100% means that no galls were found) (Meloidogyne incognita): 90%
3.75 | Cc1cc(Cl)c(-n2cnc(C(F)(F)F)n2)cc1SCC(F)F [I-A-16] |  | 100% | 100% | 
2.79 | Cc1cc(F)c(-n2cnc(C(F)(F)F)n2)cc1[S+]([O-])CC(F)(F)C(F)F (stereo not drawn) [I-A-18] |  | 100% | 100% | 
